Assay results taken from ChEMBL document CHEMBL1201862, “PubChem BioAssay data set” (2004).
Activity calls are given as the source filed them.

What was measured:
[1] = target: T1, Zinc finger protein mex-5 (Caenorhabditis elegans, UniProt Q9XUB2); assay: potency of MEX-5 RNA-binding blockers – biochemical, C. elegans, fluorescence polarization, dose response (AID 1960)
T1 sequence (Q9XUB2 whole entry): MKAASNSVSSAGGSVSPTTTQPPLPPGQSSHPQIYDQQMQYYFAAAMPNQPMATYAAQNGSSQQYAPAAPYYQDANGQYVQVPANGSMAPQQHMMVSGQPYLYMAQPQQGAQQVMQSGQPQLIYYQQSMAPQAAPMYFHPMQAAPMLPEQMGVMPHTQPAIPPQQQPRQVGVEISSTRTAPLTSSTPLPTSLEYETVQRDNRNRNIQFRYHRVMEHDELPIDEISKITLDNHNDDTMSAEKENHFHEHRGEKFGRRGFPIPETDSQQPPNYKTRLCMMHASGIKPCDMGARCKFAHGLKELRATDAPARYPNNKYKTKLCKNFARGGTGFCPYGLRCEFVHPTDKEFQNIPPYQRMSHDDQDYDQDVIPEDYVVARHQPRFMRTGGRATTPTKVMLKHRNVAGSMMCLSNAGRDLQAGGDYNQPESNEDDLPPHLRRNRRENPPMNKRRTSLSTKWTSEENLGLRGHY

[2] = target: T2, Replicative DNA helicase DnaB (Mycobacterium tuberculosis, UniProt P9WMR3); assay: DnaB intein splicing inhibitors, dose response, biochemical, cell-free fluorescence (AID 449749); format: functional
T2 sequence (P9WMR3 whole entry): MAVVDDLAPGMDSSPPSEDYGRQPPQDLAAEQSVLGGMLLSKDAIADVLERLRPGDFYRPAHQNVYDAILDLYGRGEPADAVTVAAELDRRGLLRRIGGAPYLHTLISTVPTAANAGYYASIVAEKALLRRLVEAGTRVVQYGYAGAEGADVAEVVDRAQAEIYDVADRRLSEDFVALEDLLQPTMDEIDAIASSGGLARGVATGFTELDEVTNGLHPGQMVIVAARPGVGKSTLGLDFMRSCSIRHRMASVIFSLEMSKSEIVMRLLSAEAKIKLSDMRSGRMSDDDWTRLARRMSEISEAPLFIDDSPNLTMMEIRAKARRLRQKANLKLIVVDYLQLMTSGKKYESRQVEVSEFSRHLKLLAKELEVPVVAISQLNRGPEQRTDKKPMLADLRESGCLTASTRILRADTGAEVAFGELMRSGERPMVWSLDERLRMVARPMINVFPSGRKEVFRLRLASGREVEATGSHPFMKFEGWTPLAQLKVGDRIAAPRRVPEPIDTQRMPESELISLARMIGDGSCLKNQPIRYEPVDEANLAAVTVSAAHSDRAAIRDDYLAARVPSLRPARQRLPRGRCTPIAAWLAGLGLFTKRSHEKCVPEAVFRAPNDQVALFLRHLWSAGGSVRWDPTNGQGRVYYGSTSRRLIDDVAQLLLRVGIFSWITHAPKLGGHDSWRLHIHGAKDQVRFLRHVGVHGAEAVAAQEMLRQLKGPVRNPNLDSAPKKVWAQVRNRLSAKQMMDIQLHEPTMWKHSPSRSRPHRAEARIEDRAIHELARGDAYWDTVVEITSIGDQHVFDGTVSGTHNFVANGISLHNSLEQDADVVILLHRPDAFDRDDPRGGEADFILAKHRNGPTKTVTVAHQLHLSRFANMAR

Keap1/Nrf2 = Keap1/Nrf2 (Homo sapiens, UniProt Q14145); assay: disruptors of Keap1 binding to Nrf2 peptide – biochemical, fluorescence polarization, cherry-picked samples, dose response (AID 588683)
Saccharomyces cerevisiae = assay: S. cerevisiae Caspase-1/ASC signal blockers IC50, NALP1 inhibitor project selectivity test (AID 488863); format: functional, organism-based
Troponin, cardiac muscle = Troponin, cardiac muscle (Homo sapiens, UniProt P19429+P45379+P63316); assay: Fluorescence-based biochemical high throughput dose response assay for activators of the calcium sensitivity of cardiac Regulated Thin Filaments (RTF). [Related pubchem assays (depositor defined):AID493008, AID493018, AID504382, AID504383]; format: protein-complex assay
[3] = target: T3, Serine/threonine-protein kinase Nek2 (Homo sapiens, UniProt P51955); format: functional
T3 sequence (P51955 whole entry): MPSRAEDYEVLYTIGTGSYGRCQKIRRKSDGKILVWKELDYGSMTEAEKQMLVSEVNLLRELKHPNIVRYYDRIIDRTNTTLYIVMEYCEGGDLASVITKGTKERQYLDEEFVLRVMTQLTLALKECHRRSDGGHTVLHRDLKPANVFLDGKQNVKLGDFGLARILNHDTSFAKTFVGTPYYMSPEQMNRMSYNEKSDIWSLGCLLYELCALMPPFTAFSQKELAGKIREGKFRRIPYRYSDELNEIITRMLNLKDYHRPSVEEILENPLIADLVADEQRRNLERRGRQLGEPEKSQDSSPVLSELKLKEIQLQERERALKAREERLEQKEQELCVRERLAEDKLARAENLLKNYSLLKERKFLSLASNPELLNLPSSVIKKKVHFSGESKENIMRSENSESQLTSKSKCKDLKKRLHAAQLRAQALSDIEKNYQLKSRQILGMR

Aurora kinase B = Aurora kinase B (Homo sapiens, UniProt Q96GD4); format: functional
LIM domain kinase 1 = LIM domain kinase 1 (Homo sapiens, UniProt P53667); assay: Navigating the Kinome. Panel member name: LIMK1; format: functional
[4] = target: Tyrosine-protein kinase ABL1 (Homo sapiens, UniProt P00519); format: functional
[5] = target: Serine/threonine-protein kinase SIK2 (Homo sapiens, UniProt Q9H0K1); assay: Navigating the Kinome. Panel member name: SIK2; format: functional
[6] = target: Calcium/calmodulin-dependent protein kinase kinase 2 (Homo sapiens, UniProt Q96RR4); assay: Navigating the Kinome. Panel member name: CAMKK2; format: functional
Cytochrome P450 2C19 = Cytochrome P450 2C19 (Homo sapiens, UniProt P33261); assay: Cytochrome panel assay with activity outcomes. Panel member name: p450-cyp2c19 Compounds with AC50 equal or less than 10 uM are considered active; format: functional; details: read-out: AC50
Focal adhesion kinase 1 = Focal adhesion kinase 1 (Homo sapiens, UniProt Q05397); format: functional;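 further: measured as one member of a kinome panel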
[7] = target: Mitogen-activated protein kinase 10 (Homo sapiens, UniProt P53779); assay: Navigating the Kinome. Panel member name: MAPK10; format: functional

In the case of `c1ccc2nc3cc4[nH]cnc4cc3nc2c1`, the EC50 [1] is reported as 1.74 µM (inconclusive), the AC50 [2] is reported as 19.5 µM (active) and the AC50 (Keap1/Nrf2) is reported as 10.4 µM (active). The IC50 (Saccharomyces cerevisiae) was 32.7 µM (active) and the EC50 (Troponin, cardiac muscle) was 5.37 µM (active).
With `COc1cccc(C(C)NC(=O)c2sc(-c3ccncc3)nc2C)c1` (stereo not drawn) the Ki [3] was > 3.16 µM (inactive), the Ki (Aurora kinase B) was > 3.98 µM (inactive) and the Ki (LIM domain kinase 1) was > 3.16 µM (inactive). The Ki [4] was > 2.51 µM (inactive).
For `Oc1ccc(-c2nc(-c3ccncc3)c(-c3ccc(F)cc3)[nH]2)cc1` [SB-202190], the Ki [5] was > 3.98 µM (inactive), the Ki [6] was > 2.51 µM (inactive) and the Ki [3] was > 3.16 µM (inactive). For the same molecule, the AC50 (Cytochrome P450 2C19) was 10 µM (inconclusive), the Ki (Focal adhesion kinase 1) was > 3.98 µM (inactive) and the Ki (Aurora kinase B) was > 3.98 µM (inactive). The Ki [7] was 63.1 nM (active), the Ki (LIM domain kinase 1) was > 3.16 µM (inactive) and the Ki [4] was > 2.51 µM (inactive).
